In patent US20040235049A1, “Device for presentation of polypeptides able to be used as a chip for miniaturised detection of molecules” (priority 2001, published 2004):
Like-named read-outs stand apart in the source and are kept apart here.

Legend:
[1] = system: antibodies directed against NS3 (HCV) in sera; format: binding, human
[2] = target: rhodamine-conjugated streptavidin (Streptomyces avidinii, UniProt P22629); conditions: streptavidin 10^−3 mg/ml
Description: (§1) Each concentration is spotted 6 times per slide.
The slides are then incubated in the presence of 150 μl of a 10^−3 mg/ml solution of rhodamine-conjugated streptavidin (solution of streptavidin Tetramethyl Rhodamine conjugate (Molecular Probes, Oregon, USA)) diluted in an 0.01 M PBS buffer, pH 7.2 in 15 the presence of different concentrations of biotin (10^−3 M, 10^−4 M, 10^−5 M, 10^−7 M and 0 M under a glass cover slip (24×60 mm). The slides are incubated for 2 hours at 37° C. under a moist atmosphere. A series of 4 successive washings is carried out with PBS solution to which 0.05% Tween 20 had been added. The slides are then rinsed, dried and analysed as stated above.

[3] = target: Streptavidin Tetramethyl Rhodamine conjugate (Streptomyces avidinii, UniProt P22629)
Streptavidin Tetramethyl Rhodamine conjugate, sequence (P22629 37-163 limits assumed): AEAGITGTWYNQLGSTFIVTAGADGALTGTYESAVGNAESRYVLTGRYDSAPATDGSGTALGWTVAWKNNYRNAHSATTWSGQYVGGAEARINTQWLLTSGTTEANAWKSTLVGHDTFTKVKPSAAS
Description: as §1
(§2) The slides are incubated for 2 hours at 37° C. under a moist atmosphere. A series of 4 successive washings is carried out with PBS solution to which 0.05% Tween 20 had been added. The slides are then rinsed with a deionised water wash-bottle then with 95° ethanol for 1 minute, then dried for 15 minutes in the ambient atmosphere.
(§3) The results expressed in the following table correspond to the mean fluorescence and to the standard deviation of the 6 spots of each concentration obtained after incubation of the rhodamine-conjugated streptavidin and the rhodamine- conjugated anti-biotin antibody respectively.

[4] = system: Rhodamine Conjugated affinity Purified anti-Biotin [goat]
Description: as §1, §2, §3

[5] = Sérum 1, NS3 positive, positivity threshold 2205
[6] = Sérum 2, NS3 positive, positivity threshold 3565
[7] = Sérum 3, NS3 positive, positivity threshold 4374
[8] = Sérum 4, NS3 positive, positivity threshold 2774
[9] = Sérum HCV-, positivity threshold 1271

rhodamine-conjugated streptavidin, sequence (P22629 37-163 limits assumed): as above

## AAKLSGLGIN [Peptide 11]
[1]; [5]
  Fluorescence: 2156
[1]; [6]
  Fluorescence: 1557
[1]; [7]
  Fluorescence: 1458
[1]; [8]
  Fluorescence: 5283
[1]; [9]
  Fluorescence: 628

## AIPLEAIKGG [Peptide 4]
[1]; [5]
  Fluorescence: 2899
[1]; [6]
  Fluorescence: 2988
[1]; [7]
  Fluorescence: 2497
[1]; [8]
  Fluorescence: 5598
[1]; [9]
  Fluorescence: 1011

## DVSVIPTSGD [Peptide 19]
[1]; [5]
  Fluorescence: 9088
[1]; [6]
  Fluorescence: 4111
[1]; [7]
  Fluorescence: 2337
[1]; [8]
  Fluorescence: 4939
[1]; [9]
  Fluorescence: 567

## EAIKGGRHLL [Peptide 8]
[1]; [5]
  Fluorescence: 2343
[1]; [6]
  Fluorescence: 1220
[1]; [7]
  Fluorescence: 1159
[1]; [8]
  Fluorescence: 2587
[1]; [9]
  Fluorescence: 525

## ELAAKLSGLG [Peptide 9]
[1]; [5]
  Fluorescence: 1582
[1]; [6]
  Fluorescence: 1142
[1]; [7]
  Fluorescence: 1671
[1]; [8]
  Fluorescence: 2418
[1]; [9]
  Fluorescence: 508

## GKAIPLEAIK [Peptide 2]
[1]; [5]
  Fluorescence: 3590
[1]; [6]
  Fluorescence: 8023
[1]; [7]
  Fluorescence: 3495
[1]; [8]
  Fluorescence: 7405
[1]; [9]
  Fluorescence: 933

## GLDVSVIPTS [Peptide 17]
[1]; [5]
  Fluorescence: 7976
[1]; [6]
  Fluorescence: 6423
[1]; [7]
  Fluorescence: 2619
[1]; [8]
  Fluorescence: 7338
[1]; [9]
  Fluorescence: 754

## GLGINAVAYY [Peptide 16]
[1]; [5]
  Fluorescence: 4201
[1]; [6]
  Fluorescence: 5577
[1]; [7]
  Fluorescence: 1861
[1]; [8]
  Fluorescence: 5602
[1]; [9]
  Fluorescence: 931

## H-Lys(biotin-G2)AYLAG-NH(CH2)3O(CH2)2O(CH2)2O(CH2)3NHCOCHO [pep-Biotine]
[2]; pep-Biotine 10^−3 mg/ml, biotin in competition 0 M
  mean fluorescence (6 spots): 29836
[2]; pep-Biotine 10^−3 mg/ml, biotin in competition 10^−3 M
  mean fluorescence (6 spots): 376
[2]; pep-Biotine 10^−3 mg/ml, biotin in competition 10^−4 M
  mean fluorescence (6 spots): 2237
[2]; pep-Biotine 10^−3 mg/ml, biotin in competition 10^−6 M
  mean fluorescence (6 spots): 16683
[2]; pep-Biotine 10^−3 mg/ml, biotin in competition 10^−7 M
  mean fluorescence (6 spots): 17132
[2]; pep-Biotine 10^−4 mg/ml, biotin in competition 0 M
  mean fluorescence (6 spots): 24666
[2]; pep-Biotine 10^−4 mg/ml, biotin in competition 10^−3 M
  mean fluorescence (6 spots): 207
[2]; pep-Biotine 10^−4 mg/ml, biotin in competition 10^−4 M
  mean fluorescence (6 spots): 961
[2]; pep-Biotine 10^−4 mg/ml, biotin in competition 10^−6 M
  mean fluorescence (6 spots): 9414
[2]; pep-Biotine 10^−4 mg/ml, biotin in competition 10^−7 M
  mean fluorescence (6 spots): 12178
[2]; pep-Biotine 10^−5 mg/ml, biotin in competition 0 M
  mean fluorescence (6 spots): 20902
[2]; pep-Biotine 10^−5 mg/ml, biotin in competition 10^−3 M
  mean fluorescence (6 spots): 107
[2]; pep-Biotine 10^−5 mg/ml, biotin in competition 10^−4 M
  mean fluorescence (6 spots): 322
[2]; pep-Biotine 10^−5 mg/ml, biotin in competition 10^−6 M
  mean fluorescence (6 spots): 3588
[2]; pep-Biotine 10^−5 mg/ml, biotin in competition 10^−7 M
  mean fluorescence (6 spots): 6129
[2]; pep-Biotine 10^−6 mg/ml, biotin in competition 0 M
  mean fluorescence (6 spots): 10737
[2]; pep-Biotine 10^−6 mg/ml, biotin in competition 10^−3 M
  mean fluorescence (6 spots): 78
[2]; pep-Biotine 10^−6 mg/ml, biotin in competition 10^−4 M
  mean fluorescence (6 spots): 189
[2]; pep-Biotine 10^−6 mg/ml, biotin in competition 10^−6 M
  mean fluorescence (6 spots): 2350
[2]; pep-Biotine 10^−6 mg/ml, biotin in competition 10^−7 M
  mean fluorescence (6 spots): 2611
[3]; pep-Biotine 10^−3 mg/ml, streptavidin 10^−1 mg/ml
  mean fluorescence (6 spots): 34660
[3]; pep-Biotine 10^−3 mg/ml, streptavidin 10^−3 mg/ml
  mean fluorescence (6 spots): 29836
[3]; pep-Biotine 10^−3 mg/ml, streptavidin 10^−4 mg/ml
  mean fluorescence (6 spots): 13816
[3]; pep-Biotine 10^−4 mg/ml, streptavidin 10^−1 mg/ml
  mean fluorescence (6 spots): 31781
[3]; pep-Biotine 10^−4 mg/ml, streptavidin 10^−3 mg/ml
  mean fluorescence (6 spots): 24666
[3]; pep-Biotine 10^−4 mg/ml, streptavidin 10^−4 mg/ml
  mean fluorescence (6 spots): 7931
[3]; pep-Biotine 10^−5 mg/ml, streptavidin 10^−1 mg/ml
  mean fluorescence (6 spots): 26524
[3]; pep-Biotine 10^−5 mg/ml, streptavidin 10^−3 mg/ml
  mean fluorescence (6 spots): 20902
[3]; pep-Biotine 10^−5 mg/ml, streptavidin 10^−4 mg/ml
  mean fluorescence (6 spots): 7673
[3]; pep-Biotine 10^−6 mg/ml, streptavidin 10^−1 mg/ml
  mean fluorescence (6 spots): 18500
[3]; pep-Biotine 10^−6 mg/ml, streptavidin 10^−3 mg/ml
  mean fluorescence (6 spots): 10737
[3]; pep-Biotine 10^−6 mg/ml, streptavidin 10^−4 mg/ml
  mean fluorescence (6 spots): 2124
[4]; pep-Biotine 10^−3 mg/ml, anti-biotin antibody 10^−1 mg/ml
  mean fluorescence (6 spots): 15350
[4]; pep-Biotine 10^−3 mg/ml, anti-biotin antibody 10^−2 mg/ml
  mean fluorescence (6 spots): 13113
[4]; pep-Biotine 10^−3 mg/ml, anti-biotin antibody 10^−3 mg/ml
  mean fluorescence (6 spots): 6828
[4]; pep-Biotine 10^−3 mg/ml, anti-biotin antibody 10^−4 mg/ml
  mean fluorescence (6 spots): 2271
[4]; pep-Biotine 10^−4 mg/ml, anti-biotin antibody 10^−1 mg/ml
  mean fluorescence (6 spots): 14721
[4]; pep-Biotine 10^−4 mg/ml, anti-biotin antibody 10^−2 mg/ml
  mean fluorescence (6 spots): 9121
[4]; pep-Biotine 10^−4 mg/ml, anti-biotin antibody 10^−3 mg/ml
  mean fluorescence (6 spots): 4981
[4]; pep-Biotine 10^−4 mg/ml, anti-biotin antibody 10^−4 mg/ml
  mean fluorescence (6 spots): 1535
[4]; pep-Biotine 10^−5 mg/ml, anti-biotin antibody 10^−1 mg/ml
  mean fluorescence (6 spots): 10932
[4]; pep-Biotine 10^−5 mg/ml, anti-biotin antibody 10^−2 mg/ml
  mean fluorescence (6 spots): 6849
[4]; pep-Biotine 10^−5 mg/ml, anti-biotin antibody 10^−3 mg/ml
  mean fluorescence (6 spots): 3377
[4]; pep-Biotine 10^−5 mg/ml, anti-biotin antibody 10^−4 mg/ml
  mean fluorescence (6 spots): 1249
[4]; pep-Biotine 10^−6 mg/ml, anti-biotin antibody 10^−1 mg/ml
  mean fluorescence (6 spots): 6606
[4]; pep-Biotine 10^−6 mg/ml, anti-biotin antibody 10^−2 mg/ml
  mean fluorescence (6 spots): 2947
[4]; pep-Biotine 10^−6 mg/ml, anti-biotin antibody 10^−3 mg/ml
  mean fluorescence (6 spots): 791
[4]; pep-Biotine 10^−6 mg/ml, anti-biotin antibody 10^−4 mg/ml
  mean fluorescence (6 spots): 385

## IPLEAIKGGR [Peptide 5]
[1]; [5]
  Fluorescence: 2260
[1]; [6]
  Fluorescence: 2339
[1]; [7]
  Fluorescence: 1549
[1]; [8]
  Fluorescence: 4739
[1]; [9]
  Fluorescence: 945

## IPTSGDVVVV [Peptide 23]
[1]; [5]
  Fluorescence: 2983
[1]; [6]
  Fluorescence: 3394
[1]; [7]
  Fluorescence: 1818
[1]; [8]
  Fluorescence: 4505
[1]; [9]
  Fluorescence: 904

## KAIPLEAIKG [Peptide 3]
[1]; [5]
  Fluorescence: 2803
[1]; [6]
  Fluorescence: 3161
[1]; [7]
  Fluorescence: 1694
[1]; [8]
  Fluorescence: 5065
[1]; [9]
  Fluorescence: 924

## LAAKLSGLGI [Peptide 10]
[1]; [5]
  Fluorescence: 3166
[1]; [6]
  Fluorescence: 2418
[1]; [7]
  Fluorescence: 1684
[1]; [8]
  Fluorescence: 9152
[1]; [9]
  Fluorescence: 551

## LDVSVIPTSG [Peptide 18]
[1]; [5]
  Fluorescence: 29857
[1]; [6]
  Fluorescence: 4113
[1]; [7]
  Fluorescence: 4824
[1]; [8]
  Fluorescence: 6209
[1]; [9]
  Fluorescence: 667

## LEAIKGGRHL [Peptide 7]
[1]; [5]
  Fluorescence: 1845
[1]; [6]
  Fluorescence: 1307
[1]; [7]
  Fluorescence: 1084
[1]; [8]
  Fluorescence: 3077
[1]; [9]
  Fluorescence: 574

## PLEAIKGGRH [Peptide 6]
[1]; [5]
  Fluorescence: 2789
[1]; [6]
  Fluorescence: 3136
[1]; [7]
  Fluorescence: 2821
[1]; [8]
  Fluorescence: 5932
[1]; [9]
  Fluorescence: 957

## PTSGDYVVVA [Peptide 24]
[1]; [5]
  Fluorescence: 1835
[1]; [6]
  Fluorescence: 1436
[1]; [7]
  Fluorescence: 1387
[1]; [8]
  Fluorescence: 3532
[1]; [9]
  Fluorescence: 573

## SGLGINAVAY [Peptide 15]
[1]; [5]
  Fluorescence: 17944
[1]; [6]
  Fluorescence: 10603
[1]; [7]
  Fluorescence: 4786
[1]; [8]
  Fluorescence: 8262
[1]; [9]
  Fluorescence: 791

## SVIPTSGDVV [Peptide 21]
[1]; [5]
  Fluorescence: 3553
[1]; [6]
  Fluorescence: 8321
[1]; [7]
  Fluorescence: 2244
[1]; [8]
  Fluorescence: 6853
[1]; [9]
  Fluorescence: 913

## VIPTSGDVVV [Peptide 22]
[1]; [5]
  Fluorescence: 1882
[1]; [6]
  Fluorescence: 1466
[1]; [7]
  Fluorescence: 1385
[1]; [8]
  Fluorescence: 2963
[1]; [9]
  Fluorescence: 648

## VSVIPTSGDV [Peptide 20]
[1]; [5]
  Fluorescence: 7909
[1]; [6]
  Fluorescence: 4711
[1]; [7]
  Fluorescence: 2873
[1]; [8]
  Fluorescence: 11266
[1]; [9]
  Fluorescence: 718

## YGKAIPLEAI [Peptide 1]
[1]; [5]
  Fluorescence: 3735
[1]; [6]
  Fluorescence: 3143
[1]; [7]
  Fluorescence: 2608
[1]; [8]
  Fluorescence: 6357
[1]; [9]
  Fluorescence: 917
